Measured values taken from patent US20040235007A1, “Method for detecting negatively supercoiled DNA” (National Institute of Genetics, priority 2003, published 2004).

Assays:
[1] = test system: negative supercoils of DNA on salivary gland chromosomes; experiment: Staining of salivary gland chromosomes with biotinylated psoralen / Alexa 488-labeled streptavidin; type: cell-based, Drosophila melanogaster
Procedure: (§1) Drosophila melanogaster Oregon R was grown at 18° C. According to the test protocol, some third-instar larvae were subjected to heat shock treatment; i.e., the larvae were collected in a polypropylene tube, and the tube was submerged in a 37° C. water bath for 10 minutes. Salivary glands were obtained through dissection of the larvae in a dissection buffer (10 mM HEPES-KOH (pH 7.6), 5 mM MgCl2, 5 mM KCl, 130 mM NaCl, 1% polyethylene glycol 6000). Also according to the test protocol, some of the salivary gland specimens were exposed to X-ray irradiation for 60 minutes at a dose rate of about 3 Gy/min (TORREX CABINET X-RAY SYSTEM Model TRX2800, Faxitron), whereby nicks were introduced into DNA.
Four or five pairs of salivary glands were treated with a dissection buffer (40 μL) containing 0.01% digitonin and rinsed with a dissection buffer containing no digitonin. Subsequently, the resultant salivary glands were treated with a dissection buffer containing 0.2 ng/ml biotinylated psoralen for 10 minutes. […] Br-UTP was detected with anti-BrdU monoclonal antibody (Roche) and rhodamin-labeled anti-mouse IgG antibody.
Biotinylated psoralen was detected with Alexa 488-labeled streptavidin (Molecular Probe). […] Fluoroimages were analyzed with a Carl Zeiss Axioplan 2 microscope and IP lab software.
In order to visualize negative supercoils of DNA on salivary gland chromosomes throughout the entire genome, we have extended the psoralen crosslinking protocol, using a protocol in which biotinylated psoralen is detected with fluorescence-labeled streptavidin. […] Biotinylated psoralen was detected with Alexa 488-labeled streptavidin. […] Such signals were not detected when the chromosomes had been treated with a psoralen-free buffer, or when the crbsslinking step was not performed after treatment with psoralen. […] When chromosomes had been irradiated with X-ray (180 Gy) before crosslinking with biotinylated psoralen to thereby introduce nicks into the DNA, psoralen signals which may otherwise appear in interbands and puffs were not detected (FIGS. 5A to 5C). […]

hsp70-coding region = experiment: Southern analysis of psoralen crosslinking in salivary glands; type: cell-based, Drosophila melanogaster; settings: heat-shocked salivary gland chromosomes treated with α-amanitin prior to the crosslinking step; FIG. 3 lanes 6 and 7
Procedure: as §1
Application of heat shock and dissection of larvae were performed in a manner similar to those employed for staining. […]
After electrophoresis, the gel was incubated with a denaturing solution (0.5M NaOH, 1.5M NaCl) at 65° C. for 100 minutes for reverse crosslinking of DNA with psoralen. […] Hybridization signals were detected by use of X-ray film. […]
The protocol will be described briefly as follows. […] The DNA fragments were blotted onto a nylon membrane. hsp70 located at 87A7 (FIG. 1, CRs and DDS) was analyzed using probes through the Southern method. […]

[2] = heat shocked larvae, α-amanitin treatment prior to crosslinking, FIGS. 7D to 7F

α-Amanitin
configuration of heat shock puffs [1, 2]: did not affect
psoralen signals in heat shock puffs [1, 2]: not detected
psoralen signals in interbands and puffs ([1]; non-heat shocked, 3 μg/mL α-amanitin before crosslinking with biotinylated psoralen, FIGS. 5D and 5E): undetected
crosslink-related signals (psoralen crosslinking, Southern) (hsp70-coding region): substantially no crosslink-related signals were detected
